Values after ≈ are worked out from the molar mass of the structure shown. Active and inactive are the calls of the source. The calls are words filed in the database; no cut-off is given here.
Legend:
Nucleic Acid [1] = assay: Induction of DNA strand scission activity in Escherichia coli pBR322 at 25 ug/mL by electrophoresis; type: nucleic-acid assay
KB = assay: Cytotoxicity against human KB cells; type: functional; conditions: read-out: ED50 (the source's name)
Nucleic Acid [2] = assay: Induction of DNA strand scission activity in Escherichia coli pBR322 at 0.1 ug/mL by electrophoresis; type: nucleic-acid assay

Molecule	Activity (Nucleic Acid [1])	EC50 (KB) [µg/mL]	Activity (Nucleic Acid [2])
COc1ccc2c(c1O)OC[C@@H]1c3cc4c(cc3O[C@H]21)OCO4	inactive	4 (≈ 12.7 µM)	–
BLEOMYCIN SULFATE	–	–	Active
Oc1ccc2c(c1)OC[C@@H]1c3cc4c(cc3O[C@H]21)OCO4 [(+)-MAACKIAIN]	inactive	5.6 (≈ 19.7 µM)	–
Oc1ccc2c(c1O)OC[C@@H]1c3cc4c(cc3O[C@H]21)OCO4	Active	0.9 (≈ 3 µM)	–

— ChEMBL document CHEMBL1150104, “Isolation and structure identification of an active DNA strand-scission agent, (+)-3,4-di-hydroxy-8,9-methylenedioxypterocarpan” (1995)
